{
  "source": "paper PMC5640672",
  "about": "“Molecular mechanism of synergy between the antimicrobial peptides PGLa and magainin 2” (Scientific Reports, 2017)",
  "key": {"[1]": {"test_system": "S. aureus DSM 1104", "assay": "Checker-board assay (FICI)", "format": "cell-based, Staphylococcus aureus", "details": "for FICI in combination with MAG2-WT: below 0.5 = synergistic activity", "experimental": "A suitable method to study synergistic antimicrobial activity is the so-called checker-board assay, described in the Methods section. We performed such experiments on one Gram-negative bacterium, E. coli, and one Gram-positive one, S. aureus. From this method a fractional inhibitory concentration index (FICI) is determined, and when this is below 0.5, the peptides are said to have a synergistic effect against bacteria. This is the biologically relevant effect, but we are here interested in the atomistic details of the interactions behind the effect. Therefore we also use biophysical methods.\nThe antimicrobial activity of the peptides was investigated with a standard MIC assay[87],[88] on one Gram positive (Staphylococcus aureus, DSM 1104, ATCC 25923) and one Gram negative bacterial strain (Escherichia coli, DSM 1103, ATCC 25922). Bacteria were grown in Müller-Hinton medium (MH) at 37 °C and 220 rpm. Overnight cultures were inoculated from a single colony and grown for approximately 16 h. Day cultures were grown for approximately 3 h until they reached the exponential growth phase. These suspensions were diluted with MH-medium to a concentration of 10^6 colony-forming units (CFU) per ml. The microtiter plates (96 wells of 100 µL) were filled with 50 µL of MH, and serial 2-fold dilutions of each peptide were arranged in triplets along the columns. […] Two columns were filled with medium only, to serve as a positive control (bacteria), and as a negative control (no bacteria) to check for contamination of the medium. The bacterial suspension was added in 50 µL aliquots to each well, except for the negative control, to reach a final concentration of 5 × 10^5 CFU/ml. The plates were incubated for 22 h at 37 °C. To each well 20 µL of 0.2 mg/ml Resazurin solution was added and incubated for another two hours. The MIC value was determined visually, as the lowest peptide concentration which inhibited bacterial growth in at least two out of three columns.\nTo visualize synergy between different peptides, a two-dimensional dilution assay was used[89],[90]. The same bacterial strains were used as in the MIC assay. The procedure of preparing the bacterial suspensions was analogous to the MIC assay, but with a higher final concentration because the volumes in the two setups are different. The main plate (MP) was filled with 40 µl of MH, and serial 2-fold dilutions of the peptide were arranged in each row (8 rows × 7 columns). As described above, the first column was filled with doubly concentrated medium. On another plate (HP, help plate) a second peptide dilution assay was performed, but orthogonal to the main plate. The last row was left empty (7 rows × 8 columns). 40 µL of each well of the HP were transferred to each well of the MP (A1 → A1, etc.). Two columns were filled with medium only, to serve as a positive control (bacteria), and as a negative control (no bacteria) to check for contamination of the medium. The bacterial suspension was added in 20 µL aliquots to each well, except for the negative control, to reach a final concentration of 5 × 10^5 CFU/ml. The plates were incubated for 22 h at 37 °C. To each well 20 µL of 0.1 mg/ml Resazurin solution was added and incubated for another two hours. From these plates, it is possible to determine the MIC value for each of the two peptides, as well as the inhibitory values of the mixtures with 7 × 7 different peptide ratios. From these values, fractional inhibitory concentration indices (FICIs) were calculated with the following formula[89],[91]:1 FICI=[MIC(A)^comb/MIC(A)^alone]+[MIC(B)^comb/MIC(B)^alone] In this formula, MIC(A)^alone is the MIC value determined for peptide A alone, and MIC(A)^comb is the concentration of peptide A at the MIC determined for the combination. The same holds for peptide B. FICI values below 0.5 are taken to indicate a clear synergistic effect, values between 0.5 and 2 an additive effect, and values above 2 an antagonistic effect[89],[92]."}, "[2]": {"assay": "Fluorescence ANTS/DPX vesicle leakage assay in POPC/POPG (3:1)", "details": "ANTS/DPX, POPC/POPG (3:1) 100 nm vesicles, P/L about 1:160 per peptide, mixtures 1:1, 10 mM HEPES pH 7.5, 155 mM NaCl, 30 °C, 600 s, % of Triton-X-100 leakage, fluorescence, mean of n = 3", "experimental": "The synergy was also investigated by a fluorescence ANTS/DPX leakage assay[24],[27],[30]. As described in the Methods section, leakage from POPC/POPG (3:1) vesicles was measured for 10 minutes after the addition of vesicles to a peptide solution. Leakage is expressed as percentage of the full leakage, which was obtained after addition of detergent. A synergy factor was defined to describe the enhancement of leakage of the mixture compared to the sum of the extent of leakage for each component. […] In general a synergy factor above 2 indicated synergy. […] In the leakage assay, this pore formation can be studied under more controlled conditions. Here we use two lipid compositions for the vesicles, which are mimicking bacterial membranes.\nLeakage of small unilamellar vesicles induced by the peptides was studied using a standard fluorescence assay.\nThe appropriate lipids for each experiment were dissolved in CHCl3, together with 0.02 mol-% Rhodamine-PE (Rh-PE). […] This stock suspension was subjected to 10 freeze-thaw cycles and then frozen. Appropriate aliquots of the stock lipid suspension were unfrozen each day and extruded (41 times) through polycarbonate membranes with 100 nm pore size, and stored at room temperature overnight. The fluorophore and quencher outside the vesicles were removed by size exclusion chromatography using spin-columns (Pierce centrifuge column, 2 ml, Life Technologies GmbH, Darmstadt, Germany) filled with Sephacryl 100-HR (2 min, 1500 × g). For elution, a 10 mM HEPES buffer (pH 7.5) was used, containing 155 mM NaCl to balance the osmolarity. After extrusion and removal of the external dye and quencher, the lipid concentration usually decreases. Therefore, before each set of measurements a rhodamine spectrum was recorded to determine the actual concentration of lipids, which was referenced to a spectrum taken of vesicles made by sonification without any subsequent treatment.\nFluorescence experiments were performed on a FluoroMax2 spectrofluorimeter (HORIBA Jobin Yvon, Unterhaching, Germany) equipped with a thermostated sample holder and magnetic stirrer, using an excitation wavelength of 355 nm, an emission wavelength of 508 nm, and slit widths of 5 nm. The peptide solutions were placed in elution buffer in a 1 cm standard cuvette at 30 °C. 100 s after the start of the measurement lipid vesicles were added, and the intensity of the fluorescence at 508 nm was recorded. The leakage was measured during 600 s after addition of vesicles, and the measurement was terminated after addition of Triton-X-100 (0.25% v/v), which dissolved the vesicles, and yielded 100% leakage. To determine the background signal of the vesicles themselves, several blanks were recorded per measurement set. From the leakage values of the peptides alone and of the mixture of two peptides a synergy factor SF was calculated:3 SF=L(A+B)/[L(A)+L(B)] […] Measurements were repeated three times and average values and standard deviations calculated for the leakage and the synergy factors. An average SF ≥ 2 was taken to indicate synergy."}, "[3]": {"details": "Table S7 series (PGLa-to-MSI mutants)"}, "[4]": {"details": "Table S3 series (charge mutants)"}},
  "note": "No end group written: not given here.",
  "data": [
    {"substance": "GMASKIGAIAGKIAKVALKAL-NH2 (also: 15N-labeled Ala10) [PtM-A6I, PGLa single mutant A6I]", "values": [
      {"measurement": "FICI in combination with MAG2-WT", "setting": "[1]", "value": "below 0.5"},
      {"measurement": "Leakage, mean value", "setting": "[2]; [3]", "value": 2.0, "unit": "%"}
    ]},
    {"substance": "GIGKFLHSAKKFGKAFVGKIMNS-OH [MAG2-E19K, MAG2 charge mutant E19K]", "values": [
      {"measurement": "FICI in combination with PGLa-WT", "setting": "[1]", "value": "above 0.5"},
      {"measurement": "Leakage, mean value", "setting": "[2]; [4]", "value": 4.2, "unit": "%"}
    ]},
    {"substance": "KIAGKAGAIAGKIAKVALKAL-NH2 [PtM-a2, PGLa to MSI-103 mutant, three amino acids converted]", "values": [
      {"measurement": "FICI in combination with MAG2-WT", "setting": "[1]", "value": "below 0.5"},
      {"measurement": "Leakage, mean value", "setting": "[2]; [3]", "value": 2.4, "unit": "%"}
    ]},
    {"substance": "GIGKFLHSAKKFGKAFVGKIMNS-NH 2 (GIGKFLHSAKKFGKAFVGKIMNS-NH2) [MAG2-E19K-amide, amidated MAG2 E19K mutant]", "values": [
      {"measurement": "FICI in combination with PGLa-WT", "setting": "[1]", "value": "above 0.5"},
      {"measurement": "Leakage, mean value", "setting": "[2]; [4]", "value": 2.9, "unit": "%"}
    ]},
    {"substance": "GMASKAGKIAGKIAKVALKAL-NH2 (also: 15N-labeled Ala10) [PtM-A8K, PGLa single mutant A8K]", "values": [
      {"measurement": "FICI in combination with MAG2-WT", "setting": "[1]", "value": "below 0.5"},
      {"measurement": "Leakage, mean value", "setting": "[2]; [3]", "value": 2.5, "unit": "%"}
    ]},
    {"substance": "GMASKAGAIAGKIAKIAGKIA-NH2 [PtM-c1, PGLa to MSI-103 mutant, segment C replaced]", "values": [
      {"measurement": "FICI in combination with MAG2-WT", "setting": "[1]", "value": "below 0.5"},
      {"measurement": "Leakage, mean value", "setting": "[2]; [3]", "value": 1.4, "unit": "%"}
    ]},
    {"substance": "KIAGKIGKIAGKIAKIAGKIA-NH2 [MtP-A7G, MSI-103 to PGLa single mutant A7G]", "values": [
      {"measurement": "FICI in combination with MAG2-WT", "setting": "[1]", "value": "below 0.5"},
      {"measurement": "Leakage, mean value", "setting": "[2]; Table S11 series (MSI-to-PGLa mutants)", "value": 1.4, "unit": "%"}
    ]}
  ]
}
